Experimental data from PMC9919727 (Molecules, 2023).
Like-named read-outs stand apart in the source and are kept apart here.

What was measured:
[1] = target: Carbonic anhydrase II (bCA II) (Bos taurus, UniProt P00921); assay: CA II inhibition assay (4-nitrophenyl acetate hydrolysis); type: biochemical, bovine; details: for inhibition of the enzyme CA II (in words): under the conditions of the assay
Protocol: For the CA II assay: Carbonic anhydrase II (bCA II, ≥3000 W-A units/mg from bovine erythrocytes) as well as 4-nitrophenyl acetate (4-NA) were purchased from Sigma.
The substrate (25 µL, [4-NA] = 0.75 mM, 0.50 mM, 0.25 mM, 0.15 mM) was added to start the enzymatic reaction. […] The relative inhibition was determined as the quotient of the slopes (compound divided by blank) of the linear ranges.

[2] = test system: A375 (epithelial melanoma); assay: SRB cytotoxicity assay, A375; type: cell-based; details: Homo sapiens, read-out: EC50 A375
Protocol: (§1) Expression of CA II and its involvement cancer has previously been established for A375 [82], HT29 [83] as well as for MCF-7 cells. Cell line A2780 and non-malignant fibroblasts (NIH 3T3) were employed for comparison.
(§2) NMR spectra were recorded using the Varian spectrometers (Darmstadt, Germany) DD2 and VNMRS (400 and 500 MHz, respectively). MS spectra were taken on a Advion expressionL CMS mass spectrometer (Ithaca, USA; positive ion polarity mode, solvent: methanol, solvent flow: 0.2 mL/min, spray voltage: 5.17 kV, source voltage: 77 V, APCI corona discharge: 4.2 μA, capillary temperature: 250 °C, capillary voltage: 180 V, sheath gas: N2). Thin-layer chromatography was performed on pre-coated silica gel plates supplied by Macherey-Nagel (Düren, Germany). IR spectra were recorded on a Spectrum 1000 FT-IR-spectrometer from Perkin Elmer (Rodgau, Germany). The UV/Vis-spectra were recorded on a Lambda 14 spectrometer from Perkin Elmer (Rodgau, Germany); optical rotations were measured using a JASCO-P2000 instrument (JASCO Germany GmbH, Pfungstadt, Germany) The melting points were determined using the Leica hot stage microscope Galen III (Leica Biosystems, Nussloch, Germany) and are uncorrected. The solvents were dried according to usual procedures. Microanalyses were performed with an Elementar Vario EL (CHNS) instrument (Elementar Analysensysteme GmbH, Elementar-Straße 1, D-63505 Langenselbold, Germany). All dry solvents were distilled over respective drying agents except for DMF which was distilled and stored under argon and molecular sieve. Reactions using air- or moisture-sensitive reagents were carried out under argon atmosphere in dried glassware. Triethylamine was stored over potassium hydroxide. Biological assays were performed as previously reported employing cell lines obtained from the Department of Oncology [Martin-Luther-University Halle Wittenberg; they were bought from ATCC: malignant: A 375, HT29, MCF7, and A2780; non-malignant: NIH 3T3]. Oleanolic and ursolic acid were obtained from Betulinines (Strbrna Skalice, Czech Republic) and used as received. Glycyrrhetinic acid was bought from Orgentis Chemicals GmbH (Gatersleben).
For the SRB assay: cells were seeded into 96-well plates on day zero at appropriate cell densities to prevent confluence of the cells during the period of the experiment. […] After 72 h of treatment, the supernatant media from the 96-well plates were discarded, then the cells were fixed with 10% trichloroacetic acid and allowed to rest at 4 °C. After 24 h of fixation, the cells were washed in a strip washer and then dyed with SRB solution (200 μL, 10 mM) for 20 min. […] The absorbance was measured with a 96-well plate reader from Tecan Spectra.

[3] = test system: HT29 (colorectal adenocarcinoma); assay: SRB cytotoxicity assay, HT29; type: cell-based; details: Homo sapiens, read-out: EC50 HT29
Protocol: as §1, §2
(§3) For the SRB assay: cells were seeded into 96-well plates on day zero at appropriate cell densities to prevent confluence of the cells during the period of the experiment. […] After 72 h of treatment, the supernatant media from the 96-well plates were discarded, then the cells were fixed with 10% trichloroacetic acid and allowed to rest at 4 °C. After 24 h of fixation, the cells were washed in a strip washer and then dyed with SRB solution (200 μL, 10 mM) for 20 min. Then the plates were washed four times with 1% acetic acid to remove the excess of the dye and allowed to air-dry overnight. Tris base solution (200 μL, 10 mM) was added to each well. The absorbance was measured with a 96-well plate reader from Tecan Spectra.

[4] = test system: MCF-7 (breast adenocarcinoma); assay: SRB cytotoxicity assay, MCF-7; type: cell-based; details: Homo sapiens, read-out: EC50 MCF-7
Protocol: as §1, §2, §3

[5] = test system: A2780 (ovarian carcinoma); assay: SRB cytotoxicity assay, A2780; type: cell-based; details: Homo sapiens, read-out: EC50 A2780
Protocol: as §1, §2, §3

[6] = test system: NIH 3T3 (non-malignant fibroblasts); assay: SRB cytotoxicity assay, NIH 3T3; type: cell-based; details: Mus musculus, read-out: EC50 NIH 3T3
Protocol: as §1, §2, §3

[7] = at 10 µM concentration, read-out: Inhibition [%]
[8] = A-375, SRB assay, after 72 h of treatment
[9] = HT-29, SRB assay, after 72 h of treatment
[10] = MCF7, SRB assay, after 72 h of treatment
[11] = A2780, SRB assay, after 72 h of treatment
[12] = NIH3T3, SRB assay, after 72 h of treatment, non-malignant fibroblasts

Carbonic anhydrase II (bCA II), sequence (P00921 whole entry): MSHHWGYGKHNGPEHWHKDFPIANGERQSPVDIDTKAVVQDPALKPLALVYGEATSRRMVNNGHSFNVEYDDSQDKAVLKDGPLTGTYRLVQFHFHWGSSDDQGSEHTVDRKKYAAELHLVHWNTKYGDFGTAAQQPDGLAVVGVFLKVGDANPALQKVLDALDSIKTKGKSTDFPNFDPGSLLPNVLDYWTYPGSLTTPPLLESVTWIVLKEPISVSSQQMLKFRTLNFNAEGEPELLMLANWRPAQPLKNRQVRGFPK

Compound	melting point [°C]	EC50 [3, 9] [µM]	EC50 [4, 10] [µM]	EC50 [5, 11] [µM]	EC50 [6, 12] [µM]	inhibition of the enzyme CA II (in words) [1]	also measured
C=C(C)[C@@H]1CC[C@]2(CO)CC[C@]3(C)[C@H](CC[C@@H]4[C@@]5(C)CC[C@H](OC(C)=O)C(C)(C)[C@@H]5CC[C@]43C)[C@@H]12 [Compound 2, 3-O-Acetyl-betulin]	–	–	–	–	–	–	inhibition rates (CA II) ([1]; conditions of the assay): less than 10%
C=C(C)[C@@H]1CC[C@]2(COC(=O)CCC(=O)O)CC[C@]3(C)[C@H](CC[C@@H]4[C@@]5(C)CC[C@H](OC(C)=O)C(C)(C)[C@@H]5CC[C@]43C)[C@@H]12 [Compound 3, 4-{[(3β)-3-(Acetyloxy)lup-20(29)-en-28-yl]oxy}-4-oxobutanoic Acid]	189 to 191	–	–	–	–	–	inhibition rates (CA II) [1]: less than 10%
C=C(C)[C@@H]1CC[C@]2(COC(=O)CCC(=O)Nc3nnc(S(N)(=O)=O)s3)CC[C@]3(C)[C@H](CC[C@@H]4[C@@]5(C)CC[C@H](OC(C)=O)C(C)(C)[C@@H]5CC[C@]43C)[C@@H]12 [Compound 6, (3β)-3-(Acetyloxy)lup-20(29)-en-28-yl 4-{[5-(aminosulfonyl)-1,3,4-thiadiazol-2-yl]amino}-4-oxobutanoate]	–	–	–	–	–	–	Ki [1]: 129 ± 20 nM; inhibition at 10 µM [1]: 93 ± 0.1%; mode of inhibition of CA II [1]: competitive inhibitor; EC50 ([2]; A-375, 72 h): 8.5 ± 0.7 µM; EC50 ([3]; HT-29, 72 h): 10.2 ± 1.3 µM; EC50 ([4]; MCF7, 72 h): 8.9 ± 0.7 µM; EC50 ([5]; A2780, 72 h): 9.3 ± 1.2 µM; EC50 ([6]; NIH3T3, 72 h): 9.5 ± 1 µM
CC(=O)O[C@H]1CC[C@]2(C)[C@H]3CC=C4[C@@H]5CC(C)(C)CC[C@]5(COC(=O)CCC(=O)Nc5nnc(S(N)(=O)=O)s5)CC[C@@]4(C)[C@]3(C)CC[C@H]2C1(C)C [Compound 18, (3β) 3-(Acetyloxy)olean-12-en-28-yl-4-{[5-(aminosulfonyl)-1,3,4-thiadiazol-2-yl]amino}-4-oxobutanoate]	198 to 200	14.2 ± 1.4	10.6 ± 1.4	11.8 ± 1.4	14 ± 1.5	–	inhibition at 10 µM [1, 7]: 49.4 ± 0.1%; EC50 [2, 8]: 10.1 ± 0.8 µM
CC(=O)O[C@H]1CC[C@]2(C)[C@H]3CC=C4[C@@H]5[C@@H](C)[C@H](C)CC[C@]5(COC(=O)CCC(=O)Nc5nnc(S(N)(=O)=O)s5)CC[C@@]4(C)[C@]3(C)CC[C@H]2C1(C)C [Compound 19, (3β)-3-(Acetyloxy)urs-12-en-28-yl-4-{[5-(aminosulfonyl)-1,3,4-thiadiazol-2-yl]amino}4-oxobutanoate]	190 to 192	15 ± 0.6	12.4 ± 0.8	12.5 ± 1.7	14.8 ± 1.5	–	Ki ([1]; CA II, Dixon plot, read-out: Ki): 910 ± 170 nM; inhibition at 10 µM [1, 7]: 70.8 ± 0.2%; EC50 [2, 8]: 13.7 ± 1.1 µM
CC(=O)O[C@H]1CC[C@]2(C)[C@H]3C(=O)C=C4[C@@H]5C[C@@](C)(COC(=O)CCC(=O)Nc6nnc(S(N)(=O)=O)s6)CC[C@]5(C)CC[C@@]4(C)[C@]3(C)CC[C@H]2C1(C)C [Compound 20, (3β, 20β) 3-(Acetyloxy)-11-oxoolean-12-en-30-yl-4-{[5-(aminosulfonyl)-1,3,4-thiadiazol-2-yl]amino}-4-oxobutanoate]	179 to 181	13 ± 1.3	10.5 ± 1.2	9.8 ± 0.8	11.9 ± 1.7	–	inhibition at 10 µM [1, 7]: 96.8 ± 0.2%; EC50 [2, 8]: 9.2 ± 0.5 µM
COc1cccc2c1C(=O)c1c(O)c3c(c(O)c1C2=O)C[C@@](O)(C(=O)CO)C[C@@H]3O[C@H]1C[C@H](N)[C@H](O)[C@H](C)O1 [DX, doxorubicin, reference compound]	–	0.25 ± 0.02	0.1 ± 0.01	0.1 ± 0.01	0.01 ± 0.001	–	–
C=C(C)[C@@H]1CC[C@]2(CO)CC[C@]3(C)[C@H](CC[C@@H]4[C@@]5(C)CC[C@H](O)C(C)(C)[C@@H]5CC[C@]43C)[C@@H]12 [betulin, reference compound]	–	–	–	–	–	did not inhibit the enzyme	–
C=C(C)[C@@H]1CC[C@]2(C(=O)O)CC[C@]3(C)[C@H](CC[C@@H]4[C@@]5(C)CC[C@H](O)C(C)(C)[C@@H]5CC[C@]43C)[C@@H]12 [betulinic acid, reference compound]	–	–	–	–	–	did not inhibit the enzyme	–
CC1(C)[C@@H](O)CC[C@]2(C)[C@H]3C(=O)C=C4[C@@H]5C[C@@](C)(C(=O)O)CC[C@]5(C)CC[C@@]4(C)[C@]3(C)CC[C@@H]12 [glycyrrhetinic acid, reference compound]	–	–	–	–	–	did not inhibit the enzyme	–
CC1(C)CC[C@]2(C(=O)O)CC[C@]3(C)C(=CC[C@@H]4[C@@]5(C)CC[C@H](O)C(C)(C)[C@@H]5CC[C@]43C)[C@@H]2C1 [oleanolic acid, reference compound]	–	–	–	–	–	did not inhibit the enzyme	–
C[C@H]1[C@H](C)CC[C@]2(C(=O)O)CC[C@]3(C)C(=CC[C@@H]4[C@@]5(C)CC[C@H](O)C(C)(C)[C@@H]5CC[C@]43C)[C@H]12 [ursolic acid, reference compound]	–	–	–	–	–	did not inhibit the enzyme	–
